Where a name gives a salt, the structure may show the parent alone.
How the values were obtained:
[1] = tested on: NTM strains; assay: Checkerboard synergy testing, summary over all strains tested; assay type: cell-based, nontuberculous mycobacteria; conditions: clarithromycin, ethambutol, rifabutin, amikacin, bedaquiline
[2] = tested on: MAC strains; assay: Checkerboard synergy testing, summary over the MAC strains tested; assay type: cell-based, Mycobacterium avium complex; conditions: out of a total of 5 MAC strains tested
[3] = tested on: M. intracellulare 20-S-13; assay: Checkerboard antibacterial synergy testing of EBO pairwise combinations; assay type: cell-based; conditions: M. intracellulare 20-S-13, clarithromycin resistant strain
Method: Frozen stocks of the drugs were prepared at 5 or 2 mg/ml and frozen in aliquots at −20° C. On the day of the experiment the stocks were thawed and diluted to the appropriate concentration. Middlebrook 7H9 broth and agar, CA-MH agar and Middlebrook OADC were all purchased from Becton-Dickinson and Company (Sparks, MD).
M. avium 2285R (Verma et al. Microbiol (2019) 10: 693) and M intracellulare DNA000111 were obtained from Diane Ordway (Colorado State University, Fort Collins, CO). M. chimaera 20-S-05 and the macrolide/bedaquiline-resistant M. intracellulare 20-S-13 isolate were obtained from Barbara Brown-Elliott (Mycobacteria/Nocardia Research Laboratory, University of Texas Health Science Center, Tyler Tx). […]
The checkerboard methodology was used to test for synergy and antagonism using Middlebrook 7H9+5% OADC (Dubos et al. Am Rev Tuberc (1947) 56:334-45) as the microbiology growth media. […] Synergistic or antagonistic activity was determined using the sum of the fractional inhibitory concentration (ΣFIC) index. The FTC index is calculated as the sum of FTC A+FTC B, where FTC A is the MIC of drug A in the combination of drugs A and B divided by the MIC of drug A alone, plus the MIC of drug B in the combination of drugs A and B divided by the MIC of drug B alone. […]

[4] = in vivo; cited from earlier work

SMILES: NC[C@H]1OB(O)c2c(OCCCO)cccc21 [EBO, epetraborole hydrochloride]
- Antagonism of EBO activity by second drug [1]: not antagonized

SMILES: CC[C@@H](CO)NCCN[C@@H](CC)CO [EMB, Ethambutol]
- Synergy/additivity with EBO, number of strains [2]: synergy was observed with 2 strains and additivity with an additional 2 strains
- Interaction between ethambutol and EBO (in words) [3]: indifference

SMILES: NC[C@H]1OB(O)c2c(OCCCO)cccc21 [epetraborole, Epetraborole]
- Course of hematological abnormalities [4]: return to baseline values after discontinuation of epetraborole
- RBC parameters (including hemoglobin, RBCs, and reticulocyte counts) [4]: Decreases in RBC parameters

— patent US20260248831A1, “NON-TUBERCULOSIS MYCOBACTERIA INFECTION TREATMENT” (AN2 Therapeutics, Inc., priority 2021, published 2026)
